The results in this text go back to publication PMC9329436, “Optimization of the 4-anilinoquin(az)oline scaffold as epidermal growth factor receptor (EGFR) inhibitors for chordoma utilizing a toxicology profiling assay platform” (Scientific Reports, 2022).

Holding throughout (type): biochemical
Experiment [1] addresses 320 wild-type protein kinases (Homo sapiens, UniProt O60566). The note with it: BUB1B, singlicate. An excerpt: (§1) Table S4. Profiling of two compounds at two concentrations against 320 wild-type protein kinases; singlicate measurement; Residual activities (% of control).
Experiment [2] concerns the target T1, 320 wild-type protein kinases (Homo sapiens, UniProt P21709).
T1 sequence (P21709 26-976): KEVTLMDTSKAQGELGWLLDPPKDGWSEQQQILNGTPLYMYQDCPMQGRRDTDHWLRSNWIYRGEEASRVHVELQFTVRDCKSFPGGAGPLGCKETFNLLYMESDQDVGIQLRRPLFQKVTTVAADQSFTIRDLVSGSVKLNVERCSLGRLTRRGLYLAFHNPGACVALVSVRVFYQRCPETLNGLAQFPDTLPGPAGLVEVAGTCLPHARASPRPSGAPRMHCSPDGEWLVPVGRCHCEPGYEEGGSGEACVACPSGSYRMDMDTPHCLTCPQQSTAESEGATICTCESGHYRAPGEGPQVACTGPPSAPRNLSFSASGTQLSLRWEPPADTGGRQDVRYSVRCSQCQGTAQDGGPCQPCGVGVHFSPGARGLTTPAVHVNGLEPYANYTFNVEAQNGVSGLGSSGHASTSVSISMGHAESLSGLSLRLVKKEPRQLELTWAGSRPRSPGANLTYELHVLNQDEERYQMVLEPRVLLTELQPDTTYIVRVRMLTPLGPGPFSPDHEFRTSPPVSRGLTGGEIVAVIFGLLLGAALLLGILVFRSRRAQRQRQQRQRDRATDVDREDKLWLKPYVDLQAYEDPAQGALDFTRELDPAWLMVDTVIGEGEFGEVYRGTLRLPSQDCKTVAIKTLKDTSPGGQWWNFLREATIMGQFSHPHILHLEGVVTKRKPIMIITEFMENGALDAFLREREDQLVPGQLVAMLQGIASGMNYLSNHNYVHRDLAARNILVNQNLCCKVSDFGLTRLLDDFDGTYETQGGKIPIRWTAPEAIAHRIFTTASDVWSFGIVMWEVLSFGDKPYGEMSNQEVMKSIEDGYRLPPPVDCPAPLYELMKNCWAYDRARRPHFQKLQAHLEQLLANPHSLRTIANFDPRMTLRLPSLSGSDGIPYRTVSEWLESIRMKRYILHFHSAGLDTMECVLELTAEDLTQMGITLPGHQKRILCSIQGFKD
The following applies: singlicate.
Source text: as §1

Experiment [3] concerns the target T2, 320 wild-type protein kinases (Homo sapiens, UniProt P29322).
T2 sequence (P29322 28-1005): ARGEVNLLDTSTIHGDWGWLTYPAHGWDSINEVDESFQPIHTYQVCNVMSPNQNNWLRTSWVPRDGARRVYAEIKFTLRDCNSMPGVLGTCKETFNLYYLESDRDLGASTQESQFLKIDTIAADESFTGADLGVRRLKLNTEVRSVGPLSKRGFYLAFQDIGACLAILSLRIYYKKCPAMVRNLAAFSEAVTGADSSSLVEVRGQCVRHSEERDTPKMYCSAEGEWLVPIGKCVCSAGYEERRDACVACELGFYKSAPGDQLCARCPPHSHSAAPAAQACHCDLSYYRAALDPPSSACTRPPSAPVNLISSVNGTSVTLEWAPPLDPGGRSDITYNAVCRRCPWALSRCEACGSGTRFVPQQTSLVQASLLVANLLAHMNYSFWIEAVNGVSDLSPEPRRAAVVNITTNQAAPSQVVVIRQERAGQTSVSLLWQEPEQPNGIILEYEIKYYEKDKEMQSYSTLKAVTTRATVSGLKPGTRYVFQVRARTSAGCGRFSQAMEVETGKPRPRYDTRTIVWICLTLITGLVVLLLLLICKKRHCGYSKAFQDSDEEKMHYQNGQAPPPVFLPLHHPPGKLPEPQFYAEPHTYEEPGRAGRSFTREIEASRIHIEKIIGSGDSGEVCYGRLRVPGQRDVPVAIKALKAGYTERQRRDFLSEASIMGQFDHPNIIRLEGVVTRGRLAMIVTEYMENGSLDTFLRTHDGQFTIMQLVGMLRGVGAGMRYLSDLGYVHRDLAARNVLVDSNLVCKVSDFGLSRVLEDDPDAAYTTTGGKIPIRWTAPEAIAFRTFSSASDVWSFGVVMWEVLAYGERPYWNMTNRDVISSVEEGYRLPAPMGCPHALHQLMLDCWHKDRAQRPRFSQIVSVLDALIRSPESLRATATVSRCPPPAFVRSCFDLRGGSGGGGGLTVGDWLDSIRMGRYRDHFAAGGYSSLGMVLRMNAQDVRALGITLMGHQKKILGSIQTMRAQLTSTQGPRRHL
The following applies: singlicate.
Source text: as §1

Experiment [4] addresses T3, 320 wild-type protein kinases (Homo sapiens, UniProt P42680).
T3 sequence (P42680 1-631): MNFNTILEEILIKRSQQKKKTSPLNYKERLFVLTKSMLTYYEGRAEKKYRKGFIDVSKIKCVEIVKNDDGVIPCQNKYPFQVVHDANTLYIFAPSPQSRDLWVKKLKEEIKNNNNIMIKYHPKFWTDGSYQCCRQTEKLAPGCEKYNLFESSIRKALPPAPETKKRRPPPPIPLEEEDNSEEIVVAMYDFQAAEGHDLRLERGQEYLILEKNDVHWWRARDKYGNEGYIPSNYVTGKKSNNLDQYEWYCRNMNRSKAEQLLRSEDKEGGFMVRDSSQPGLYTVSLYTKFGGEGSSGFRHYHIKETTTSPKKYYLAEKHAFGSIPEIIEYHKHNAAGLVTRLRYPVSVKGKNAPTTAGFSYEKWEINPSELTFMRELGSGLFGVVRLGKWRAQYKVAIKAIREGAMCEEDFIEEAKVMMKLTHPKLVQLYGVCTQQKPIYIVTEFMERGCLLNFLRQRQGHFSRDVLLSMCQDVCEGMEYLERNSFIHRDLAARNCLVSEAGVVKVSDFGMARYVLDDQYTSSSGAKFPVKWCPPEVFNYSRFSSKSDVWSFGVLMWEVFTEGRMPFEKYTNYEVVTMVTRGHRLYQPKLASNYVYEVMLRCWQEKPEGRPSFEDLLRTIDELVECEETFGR
The note with it: kinase TEC, singlicate.
Source text: as §1

Experiment [5] addresses 320 wild-type protein kinases (Homo sapiens, UniProt Q02779). The note with it: singlicate.
Source text: as §1

Experiment [6] concerns the target 320 wild-type protein kinases (Homo sapiens, UniProt Q13131). The following applies: singlicate.
Source text: as §1

Like-named read-outs stand apart in the source and are kept apart here.

320 wild-type protein kinases (Homo sapiens, UniProt Q02779), sequence (Q02779 whole entry): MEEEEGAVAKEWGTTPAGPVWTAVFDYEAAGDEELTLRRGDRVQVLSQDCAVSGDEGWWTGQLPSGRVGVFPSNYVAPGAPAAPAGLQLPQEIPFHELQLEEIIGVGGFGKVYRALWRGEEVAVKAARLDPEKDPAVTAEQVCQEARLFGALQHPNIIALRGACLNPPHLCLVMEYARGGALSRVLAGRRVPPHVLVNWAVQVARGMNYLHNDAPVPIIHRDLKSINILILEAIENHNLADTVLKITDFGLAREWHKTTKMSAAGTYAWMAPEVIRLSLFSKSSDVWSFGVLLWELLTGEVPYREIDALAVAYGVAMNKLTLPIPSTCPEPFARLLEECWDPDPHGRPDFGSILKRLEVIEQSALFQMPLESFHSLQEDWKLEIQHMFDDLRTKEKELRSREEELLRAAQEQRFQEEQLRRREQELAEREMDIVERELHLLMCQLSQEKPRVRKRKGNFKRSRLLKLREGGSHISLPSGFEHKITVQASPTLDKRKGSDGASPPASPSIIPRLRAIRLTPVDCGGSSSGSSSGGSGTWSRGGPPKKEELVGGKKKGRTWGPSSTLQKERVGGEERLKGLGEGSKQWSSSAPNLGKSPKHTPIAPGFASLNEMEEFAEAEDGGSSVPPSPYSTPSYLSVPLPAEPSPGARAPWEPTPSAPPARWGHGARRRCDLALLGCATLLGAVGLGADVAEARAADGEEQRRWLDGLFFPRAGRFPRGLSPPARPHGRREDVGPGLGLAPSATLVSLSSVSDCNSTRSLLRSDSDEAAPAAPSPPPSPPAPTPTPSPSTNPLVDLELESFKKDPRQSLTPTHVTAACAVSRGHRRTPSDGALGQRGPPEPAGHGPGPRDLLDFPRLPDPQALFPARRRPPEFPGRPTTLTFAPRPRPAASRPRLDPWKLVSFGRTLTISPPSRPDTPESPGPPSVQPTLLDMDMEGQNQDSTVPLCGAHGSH
320 wild-type protein kinases (Homo sapiens, UniProt O60566), sequence (O60566 whole entry): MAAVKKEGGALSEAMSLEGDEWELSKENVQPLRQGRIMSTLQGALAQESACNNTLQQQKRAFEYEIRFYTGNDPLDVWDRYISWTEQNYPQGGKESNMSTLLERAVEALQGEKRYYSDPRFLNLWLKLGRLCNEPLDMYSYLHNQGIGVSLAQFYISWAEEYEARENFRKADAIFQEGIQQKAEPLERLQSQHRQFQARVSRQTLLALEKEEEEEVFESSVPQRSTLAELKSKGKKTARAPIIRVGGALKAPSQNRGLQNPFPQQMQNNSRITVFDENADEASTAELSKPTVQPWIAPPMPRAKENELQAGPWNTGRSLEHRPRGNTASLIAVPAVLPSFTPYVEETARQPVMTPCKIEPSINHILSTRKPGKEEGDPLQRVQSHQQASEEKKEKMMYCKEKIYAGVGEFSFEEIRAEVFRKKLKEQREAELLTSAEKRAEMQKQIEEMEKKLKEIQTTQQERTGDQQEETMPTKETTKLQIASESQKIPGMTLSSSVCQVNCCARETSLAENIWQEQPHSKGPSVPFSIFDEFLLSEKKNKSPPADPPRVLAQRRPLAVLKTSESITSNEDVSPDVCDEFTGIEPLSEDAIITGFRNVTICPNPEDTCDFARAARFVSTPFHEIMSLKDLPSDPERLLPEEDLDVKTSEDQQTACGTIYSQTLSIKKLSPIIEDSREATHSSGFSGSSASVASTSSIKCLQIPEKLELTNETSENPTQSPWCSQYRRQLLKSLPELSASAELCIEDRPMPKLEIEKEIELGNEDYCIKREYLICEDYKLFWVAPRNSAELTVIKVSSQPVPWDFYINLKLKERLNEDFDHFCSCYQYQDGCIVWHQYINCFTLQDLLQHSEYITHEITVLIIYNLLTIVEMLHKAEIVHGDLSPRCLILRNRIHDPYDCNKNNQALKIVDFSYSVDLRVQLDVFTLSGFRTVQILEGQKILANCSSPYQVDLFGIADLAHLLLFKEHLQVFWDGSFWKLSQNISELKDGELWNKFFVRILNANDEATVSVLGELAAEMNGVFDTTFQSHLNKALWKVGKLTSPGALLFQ
320 wild-type protein kinases (Homo sapiens, UniProt Q13131), sequence (Q13131 whole entry): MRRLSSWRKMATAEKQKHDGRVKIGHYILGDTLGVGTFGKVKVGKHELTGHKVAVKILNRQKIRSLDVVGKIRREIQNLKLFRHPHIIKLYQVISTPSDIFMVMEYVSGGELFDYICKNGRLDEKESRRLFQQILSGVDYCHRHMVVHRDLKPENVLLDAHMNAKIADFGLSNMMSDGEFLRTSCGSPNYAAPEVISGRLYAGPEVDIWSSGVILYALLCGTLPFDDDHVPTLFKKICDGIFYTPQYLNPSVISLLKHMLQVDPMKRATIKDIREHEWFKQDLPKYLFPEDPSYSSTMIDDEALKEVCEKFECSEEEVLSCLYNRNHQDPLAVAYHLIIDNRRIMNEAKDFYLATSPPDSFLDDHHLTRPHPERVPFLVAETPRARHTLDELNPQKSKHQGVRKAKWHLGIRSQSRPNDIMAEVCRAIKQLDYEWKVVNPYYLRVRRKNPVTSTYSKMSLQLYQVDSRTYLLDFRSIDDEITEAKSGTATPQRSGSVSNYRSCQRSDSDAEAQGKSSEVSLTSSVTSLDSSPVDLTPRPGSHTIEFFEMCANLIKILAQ

Take `C#Cc1cc(Nc2ncnc3cc(OC)c(OC)cc23)ccc1Cl` [Compound 45]: the Residual activity was 115 % of control in experiment [1] (1.0E-06 M); 137 % of control in experiment [1] (1.0E-07 M); 80 % of control in experiment [2] (EPHA1, 1.0E-06 M); 91 % of control in experiment [2] (EPHA1, 1.0E-07 M); 103 % of control in experiment [3] (EPHA8, 1.0E-06 M); 112 % of control in experiment [3] (EPHA8, 1.0E-07 M). Besides, the Residual activity in experiment [5] (MAP3K10, 1.0E-06 M) is listed as 86 % of control; in experiment [5] (MAP3K10, 1.0E-07 M) it was 92 % of control; in experiment [6] (AMPK-alpha1 aa1-550, 1.0E-06 M) it was 98 % of control; in experiment [6] (AMPK-alpha1 aa1-550, 1.0E-07 M) it was 91 % of control. Further, the “Residual activity, TEC” value in experiment [4] (assay conc. 1.0E-06 M) was 92 % of control; in experiment [4] (assay conc. 1.0E-07 M), 108 % of control.

For `C#Cc1cc(Nc2ncnc3cc(I)ccc23)ccc1Cl` [Compound 41], the Residual activity is 131 % of control in experiment [1] (1.0E-06 M); 122 % of control in experiment [1] (1.0E-07 M); 78 % of control in experiment [2] (EPHA1, 1.0E-06 M); 106 % of control in experiment [2] (EPHA1, 1.0E-07 M); 118 % of control in experiment [3] (EPHA8, 1.0E-06 M); 110 % of control in experiment [3] (EPHA8, 1.0E-07 M). For the same compound, the Residual activity in experiment [5] (MAP3K10, 1.0E-06 M) is 93 % of control; in experiment [5] (MAP3K10, 1.0E-07 M), 102 % of control; in experiment [6] (AMPK-alpha1 aa1-550, 1.0E-06 M) it was 107 % of control; in experiment [6] (AMPK-alpha1 aa1-550, 1.0E-07 M), 106 % of control. For the same compound, the results for the “Residual activity, TEC” value in experiment [4] (assay conc. 1.0E-06 M) and in experiment [4] (assay conc. 1.0E-07 M) were 90 % of control and 96 % of control, respectively.
